Laboratory results as given in ChEMBL document CHEMBL3588817, “Discovery of 4,5,6,7-Tetrahydrobenzo[1,2-d]thiazoles as Novel DNA Gyrase Inhibitors Targeting the ATP-Binding Site” (J Med Chem, 2015).
In brackets after ≈: the same amount, converted by molar mass.

Tests used:
[1] = molecular target: T1, DNA gyrase (Escherichia coli, UniProt P0AES4+P0AES6); test: Binding affinity to Escherichia coli DNA gyrase subunit B N-terminal 24 kDa domain by SPR assay; format: protein-complex assay
[2] = system: Escherichia coli; test: Antibacterial activity against wild type Escherichia coli ATCC 25922 assessed as inhibition of microbial growth by broth microdilution method; format: functional
[3] = molecular target: DNA gyrase (Staphylococcus aureus) (UniProt P0A0K8+P20831); test: Inhibition of Staphylococcus aureus DNA gyrase assessed as residual enzyme activity at 100 uM using relaxed pNO1 plasmid and biotinylated oligonucelotide incubated for 30 mins by fluorescence based DNA super-coiling assay; format: protein-complex assay
DNA gyrase (Staphylococcus aureus), sequence (P0A0K8 2-644 limits assumed): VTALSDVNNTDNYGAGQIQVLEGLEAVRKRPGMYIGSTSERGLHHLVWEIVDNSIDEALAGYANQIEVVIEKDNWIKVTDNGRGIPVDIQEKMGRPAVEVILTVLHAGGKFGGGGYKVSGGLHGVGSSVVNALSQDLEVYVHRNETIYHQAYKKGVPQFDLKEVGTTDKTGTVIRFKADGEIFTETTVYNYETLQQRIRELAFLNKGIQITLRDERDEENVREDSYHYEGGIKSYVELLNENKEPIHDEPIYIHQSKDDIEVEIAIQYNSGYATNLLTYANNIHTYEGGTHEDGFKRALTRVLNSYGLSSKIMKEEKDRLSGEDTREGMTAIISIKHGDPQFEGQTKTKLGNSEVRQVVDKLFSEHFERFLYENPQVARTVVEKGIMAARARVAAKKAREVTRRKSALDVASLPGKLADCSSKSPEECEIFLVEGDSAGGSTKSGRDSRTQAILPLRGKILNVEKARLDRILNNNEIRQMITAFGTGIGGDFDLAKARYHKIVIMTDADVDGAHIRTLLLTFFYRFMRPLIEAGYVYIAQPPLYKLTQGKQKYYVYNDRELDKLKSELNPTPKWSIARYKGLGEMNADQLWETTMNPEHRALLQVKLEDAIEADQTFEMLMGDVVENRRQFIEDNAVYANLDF
DNA gyrase (Staphylococcus aureus), sequence (P20831 whole entry partner): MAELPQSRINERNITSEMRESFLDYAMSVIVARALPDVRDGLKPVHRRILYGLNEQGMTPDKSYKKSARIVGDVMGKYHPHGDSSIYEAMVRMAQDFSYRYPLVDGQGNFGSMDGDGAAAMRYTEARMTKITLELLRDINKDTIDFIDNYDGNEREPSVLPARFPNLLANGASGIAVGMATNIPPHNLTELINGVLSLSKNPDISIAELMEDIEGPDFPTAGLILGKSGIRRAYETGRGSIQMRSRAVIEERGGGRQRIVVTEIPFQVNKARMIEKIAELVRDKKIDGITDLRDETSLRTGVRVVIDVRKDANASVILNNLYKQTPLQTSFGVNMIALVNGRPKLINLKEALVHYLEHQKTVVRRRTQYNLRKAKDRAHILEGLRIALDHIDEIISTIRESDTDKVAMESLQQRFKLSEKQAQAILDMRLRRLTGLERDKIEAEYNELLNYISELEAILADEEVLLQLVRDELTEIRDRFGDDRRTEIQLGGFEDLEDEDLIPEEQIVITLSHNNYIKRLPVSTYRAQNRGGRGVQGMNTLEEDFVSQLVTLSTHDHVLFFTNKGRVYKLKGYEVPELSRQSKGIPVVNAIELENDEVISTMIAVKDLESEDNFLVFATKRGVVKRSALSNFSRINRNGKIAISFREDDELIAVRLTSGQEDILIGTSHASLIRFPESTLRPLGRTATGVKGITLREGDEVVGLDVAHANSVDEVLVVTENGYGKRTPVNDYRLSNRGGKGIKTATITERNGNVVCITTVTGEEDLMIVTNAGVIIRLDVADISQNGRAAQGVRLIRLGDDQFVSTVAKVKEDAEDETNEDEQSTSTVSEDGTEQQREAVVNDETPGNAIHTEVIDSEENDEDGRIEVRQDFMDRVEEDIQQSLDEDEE

[4] = system: Pseudomonas aeruginosa; test: Antibacterial activity against Pseudomonas aeruginosa ATCC 27853 assessed as inhibition of microbial growth at 50 uM by broth microdilution method; format: functional; settings: read-out: GI
[5] = system: Staphylococcus aureus; test: Antibacterial activity against Staphylococcus aureus 25923 assessed as inhibition of microbial growth at 50 uM by broth microdilution method; format: functional; settings: read-out: GI
[6] = system: Staphylococcus aureus; test: Antibacterial activity against Staphylococcus aureus 25923 assessed as inhibition of microbial growth by broth microdilution method; format: functional
[7] = system: Pseudomonas aeruginosa; test: Antibacterial activity against Pseudomonas aeruginosa ATCC 27853 assessed as inhibition of microbial growth by broth microdilution method; format: functional
[8] = molecular target: Topoisomerase IV (Staphylococcus aureus) (UniProt P0C1U9+P0C1S7); test: Inhibition of Staphylococcus aureus DNA topoisomerase 4 assessed as residual enzyme activity at 100 uM using relaxed pNO1 plasmid and biotinylated oligonucelotide incubated for 30 mins by fluorescence based DNA relaxation assay; format: protein-complex assay
[9] = system: Escherichia coli; test: Antibacterial activity against Escherichia coli imp4213::Tn10 by broth microdilution method; format: functional
[10] = system: Escherichia coli; test: Antibacterial activity against wild type Escherichia coli ATCC 25922 by broth microdilution method; format: functional
[11] = system: Escherichia coli; test: Antibacterial activity against wild type Escherichia coli ATCC 25922 assessed as inhibition of microbial growth at 50 uM by broth microdilution method; format: functional; settings: read-out: GI
[12] = system: Escherichia coli; test: Antibacterial activity against efflux deficient Escherichia coli tolC::Tn10 lacking functional tolC gene by broth microdilution method
[13] = system: Enterococcus faecalis; test: Antibacterial activity against Enterococcus faecalis ATCC 29212 assessed as inhibition of microbial growth at 50 uM by broth microdilution method; format: functional; settings: read-out: GI
[14] = molecular target: T1, DNA gyrase; test: Inhibition of Escherichia coli DNA gyrase using relaxed pNO1 plasmid and biotinylated oligonucelotide incubated for 30 mins by fluorescence based DNA super-coiling assay; format: protein-complex assay
[15] = system: Enterococcus faecalis; test: Antibacterial activity against Enterococcus faecalis ATCC 29212 assessed as inhibition of microbial growth by broth microdilution method; format: functional
[16] = system: Escherichia coli; test: Inhibition of Escherichia coli DNA topoisomerase 4 assessed as residual enzyme activity at 100 uM using relaxed pNO1 plasmid and biotinylated oligonucelotide incubated for 30 mins by fluorescence based DNA relaxation assay
[17] = Inhibition of Escherichia coli DNA Gyrase ATPase activity assessed as reduction in conversion of NADH to NAD+ using linear pBR322 substrate
[18] = molecular target: Topoisomerase IV (Staphylococcus aureus, UniProt P0C1S7+P0C1U9); test: Inhibition of Staphylococcus aureus DNA topoisomerase 4 using relaxed pNO1 plasmid and biotinylated oligonucelotide incubated for 30 mins by fluorescence based DNA relaxation assay; format: protein-complex assay
Topoisomerase IV, sequence (P0C1U9 whole entry): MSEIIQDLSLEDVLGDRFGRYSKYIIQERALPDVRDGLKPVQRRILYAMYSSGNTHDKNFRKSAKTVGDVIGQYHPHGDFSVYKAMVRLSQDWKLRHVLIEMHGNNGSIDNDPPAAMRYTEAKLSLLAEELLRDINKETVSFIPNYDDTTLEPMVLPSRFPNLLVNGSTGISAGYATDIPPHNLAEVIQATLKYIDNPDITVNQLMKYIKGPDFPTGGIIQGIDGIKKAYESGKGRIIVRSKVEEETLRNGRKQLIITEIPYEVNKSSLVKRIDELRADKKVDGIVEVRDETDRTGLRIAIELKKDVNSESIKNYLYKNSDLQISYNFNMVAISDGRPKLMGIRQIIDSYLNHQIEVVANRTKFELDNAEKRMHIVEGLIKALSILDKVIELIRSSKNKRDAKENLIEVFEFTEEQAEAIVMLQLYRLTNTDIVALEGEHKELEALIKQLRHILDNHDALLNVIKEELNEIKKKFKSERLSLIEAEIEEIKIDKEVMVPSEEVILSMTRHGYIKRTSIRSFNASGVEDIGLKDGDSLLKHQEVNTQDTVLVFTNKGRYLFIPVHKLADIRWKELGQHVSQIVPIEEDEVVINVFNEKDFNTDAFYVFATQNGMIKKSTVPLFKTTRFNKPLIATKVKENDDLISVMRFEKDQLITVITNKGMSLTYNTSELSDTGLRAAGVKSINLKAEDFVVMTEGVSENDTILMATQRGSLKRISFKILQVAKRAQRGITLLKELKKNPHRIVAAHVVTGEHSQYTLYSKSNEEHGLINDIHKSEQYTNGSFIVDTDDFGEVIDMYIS
Topoisomerase IV, sequence (P0C1S7 whole entry): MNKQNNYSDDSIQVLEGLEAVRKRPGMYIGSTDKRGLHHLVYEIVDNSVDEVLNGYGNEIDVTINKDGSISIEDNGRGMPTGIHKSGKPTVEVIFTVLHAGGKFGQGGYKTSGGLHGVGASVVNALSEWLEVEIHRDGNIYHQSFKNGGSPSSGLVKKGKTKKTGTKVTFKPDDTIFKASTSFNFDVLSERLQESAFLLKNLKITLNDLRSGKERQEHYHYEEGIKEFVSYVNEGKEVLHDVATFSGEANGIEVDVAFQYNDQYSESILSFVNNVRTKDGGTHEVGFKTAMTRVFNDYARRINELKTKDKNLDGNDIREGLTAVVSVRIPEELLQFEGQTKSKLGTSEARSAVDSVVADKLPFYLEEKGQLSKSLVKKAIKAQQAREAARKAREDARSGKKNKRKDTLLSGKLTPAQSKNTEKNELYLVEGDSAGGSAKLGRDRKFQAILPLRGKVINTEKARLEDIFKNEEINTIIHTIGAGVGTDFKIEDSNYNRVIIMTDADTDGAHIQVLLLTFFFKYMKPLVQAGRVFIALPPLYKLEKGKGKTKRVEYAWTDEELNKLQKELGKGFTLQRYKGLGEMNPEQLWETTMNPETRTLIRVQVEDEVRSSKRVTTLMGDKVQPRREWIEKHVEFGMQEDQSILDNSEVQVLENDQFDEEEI

[19] = molecular target: DNA gyrase (Staphylococcus aureus, UniProt P0A0K8+P20831); test: Inhibition of Staphylococcus aureus DNA gyrase using relaxed pNO1 plasmid and biotinylated oligonucelotide incubated for 30 mins by fluorescence based DNA super-coiling assay; format: protein-complex assay
DNA gyrase (Staphylococcus aureus, UniProt P0A0K8+P20831), sequence (P0A0K8 whole entry): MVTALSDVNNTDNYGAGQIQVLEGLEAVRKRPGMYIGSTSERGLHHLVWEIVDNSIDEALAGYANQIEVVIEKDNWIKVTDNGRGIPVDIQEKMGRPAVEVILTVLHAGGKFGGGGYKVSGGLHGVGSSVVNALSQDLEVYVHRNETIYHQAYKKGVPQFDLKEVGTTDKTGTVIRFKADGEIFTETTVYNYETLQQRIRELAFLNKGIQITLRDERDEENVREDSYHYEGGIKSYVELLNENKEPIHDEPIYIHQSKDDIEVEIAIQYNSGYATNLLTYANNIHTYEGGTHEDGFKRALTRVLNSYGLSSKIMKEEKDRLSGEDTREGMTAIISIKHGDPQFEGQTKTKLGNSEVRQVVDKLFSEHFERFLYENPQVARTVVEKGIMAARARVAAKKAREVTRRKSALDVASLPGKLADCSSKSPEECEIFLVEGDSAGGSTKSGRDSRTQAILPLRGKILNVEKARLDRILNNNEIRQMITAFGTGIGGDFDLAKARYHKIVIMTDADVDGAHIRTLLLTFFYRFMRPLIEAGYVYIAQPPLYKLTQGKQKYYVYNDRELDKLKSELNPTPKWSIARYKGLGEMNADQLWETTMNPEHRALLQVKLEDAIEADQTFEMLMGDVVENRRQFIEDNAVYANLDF
DNA gyrase (Staphylococcus aureus, UniProt P0A0K8+P20831), sequence (P20831 whole entry): as the sequence (P20831 whole entry partner) above

| SMILES | Kd [1] [µM] | MIC [2] [µM] | Activity [3] [%] | inhibition of growth at 50 µM [4] [%] | inhibition of growth at 50 µM [5] [%] | MIC [6] [µM] | MIC [7] [µM] | Activity [8] [%] | MIC [9] [µg/mL] | MIC [10] [µg/mL] | inhibition of growth at 50 µM [11] [%] | MIC [12] [µg/mL] | inhibition of growth at 50 µM [13] [%] | IC50 [14] [µM] | MIC [15] [µM] | Activity [16] [%] | IC50 [17] [µM] | IC50 [18] [µM] | IC50 [19] [µM] |
| --- | --- | --- | --- | --- | --- | --- | --- | --- | --- | --- | --- | --- | --- | --- | --- | --- | --- | --- | --- |
| COC(=O)CC(=O)Nc1nc2c(s1)C[C@@H](NC(=O)c1cc(Cl)c(Cl)[nH]1)CC2 | 0.05 | > 125 | 63 | < 50 | < 50 | > 125 | > 125 | 101 | 32 (≈ 74.2 µM) | > 256 | < 50 | 32 (≈ 74.2 µM) | < 50 | 0.4 | > 125 | 97 |  |  |  |
| O=C(O)CC(=O)Nc1nc2c(s1)C[C@@H](NC(=O)c1cc3ccccc3[nH]1)CC2 |  | > 125 | 117 | < 50 | < 50 | > 125 | > 125 | 103 | > 256 | > 256 | < 50 | > 256 | < 50 | 7.6 | > 125 | 96 | 22 |  |  |
| CCOC(=O)C(=O)Nc1nc2c(s1)C[C@@H](NC(=O)c1cc(Br)c(Br)[nH]1)CC2 |  | > 125 |  | < 50 | < 50 | > 125 | > 125 |  | > 256 | > 256 | < 50 | 128 (≈ 246 µM) | < 50 | 0.1 | > 125 | 74 | 0.57 | 180 | 80 |
| CC(=O)Nc1nc2c(s1)C[C@@H](NC(=O)c1cc(Br)c(Br)[nH]1)CC2 |  | > 125 |  | < 50 | < 50 | > 125 | > 125 | 101 |  |  | < 50 |  | < 50 | 0.15 | > 125 | 98 |  |  | 26 |
| O=C(O)CC(=O)Nc1nc2c(s1)C[C@@H](NC(=O)c1cc(Cl)c(Cl)[nH]1)CC2 | 0.049 | > 125 | 87 | < 50 | < 50 | > 125 | > 125 | 102 | > 256 | > 256 | < 50 | > 256 | < 50 | 0.13 | > 125 | 98 | 0.66 |  |  |
| O=C(O)C(=O)Nc1nc2c(s1)C[C@@H](NC(=O)c1cc(Cl)c(Cl)[nH]1)CC2 |  | > 125 |  | < 50 | < 50 | > 125 | > 125 |  | > 256 | > 256 | < 50 | > 256 | < 50 | 0.59 | > 125 | 82 |  | 170 | 300 |
| COC(=O)CCC(=O)Nc1nc2c(s1)C[C@@H](NC(=O)c1cc(Br)c(Br)[nH]1)CC2 | 0.15 | > 125 | 113 | < 50 | < 50 | > 125 | > 125 | 99 | 64 (≈ 120 µM) | > 256 | < 50 | 32 (≈ 59.9 µM) | < 50 | 0.093 | > 125 | 97 |  |  |  |
| Nc1nc2c(s1)C[C@@H](NC(=O)c1cc(Br)c(Br)[nH]1)CC2 | 3 | > 125 | 90 | < 50 | < 50 | > 125 | > 125 | 102 | 64 (≈ 152 µM) | > 256 | < 50 | 64 (≈ 152 µM) | < 50 | 12 | > 125 | 101 | 25 |  |  |
| O=C(O)CCC(=O)Nc1nc2c(s1)C[C@@H](NC(=O)c1cc(Br)c(Br)[nH]1)CC2 | 0.01 | > 125 |  | < 50 | < 50 | > 125 | > 125 |  | > 256 | > 256 | < 50 | 256 (≈ 492 µM) | < 50 | 0.049 | > 125 | 90 |  | 110 | 270 |
| O=C(O)CCC(=O)Nc1nc2c(s1)C[C@@H](NC(=O)c1cc(Cl)c(Cl)[nH]1)CC2 |  | > 125 |  | < 50 | < 50 | > 125 | > 125 | 97 | > 256 | > 256 | < 50 | > 256 | < 50 | 0.3 | > 125 | 72 |  |  | 10 |
| NC(=O)CC(=O)Nc1nc2c(s1)C[C@@H](NC(=O)c1cc(Br)c(Br)[nH]1)CC2 |  | > 125 | 71 | < 50 | < 50 | > 125 | > 125 | 98 | > 256 | > 256 | < 50 | 128 (≈ 253 µM) | < 50 | 1.7 | > 125 | 97 |  |  |  |
